Like-named read-outs stand apart in the source and are kept apart here.
Target: T1, F508delCFTR (Homo sapiens, UniProt P13569, DEL508-508)
T1 construct: expressed in transfected cells; host or cells: CFBE41o- human lung derived epithelial cells (CFBE41o-F508delCFTR-HRP), doxycycline-inducible
Assay: Cell Surface Expression-Horse Radish Peroxidase (CSE-HRP) Assay
Assay type: cell-based
Conditions: for Maximum % activity (with co-corrector) / Maximum % activity (without co-corrector) / Emax: maximum at any tested concentration; for Emax: read-out: Maximum % activity (without co-corrector)
Method: A cellular assay for measuring the F508delCFTR cell surface expression after correction with test compounds either without or with a co-corrector (2 μM of 3-[(2R,4R)-4-({[1-(2,2-difluoro-1,3-benzodioxol-5-yl)cyclopropyl]carbonyl}amino)-7-methoxy-3,4-dihydro-2H-chromen-2-yl]benzoic acid), was developed in human lung derived epithelial cell line (CFBE4lo−) (Veit G et al, (2012) Mol Biol Cell. 23(21): 4188-4202). The development was achieved by expressing the F508delCFTR mutation along with a horseradish peroxidase (HRP) in the fourth exofacial loop, and then measuring the HRP activity using luminescence readout from these cells, CFBE410-F508delCFTR-HRP, that were incubated overnight with the test corrector compounds, either without or with the co-corrector. For this primary assay, the CFBE410-F508delCFTR-HRP cells were plated in 384-well plates (Greiner Bio-one; Cat 781080) at 4,000 cells/well along with 0.5 μg/mL doxycycline to induce the F508delCFTR-HRP expression and further incubated at 37° C., 5% CO2 for 68-72 hours. The test compounds were then added either without or with a co-corrector at the required concentrations and further incubated for 18-24 hours at 33° C. The highest concentration tested was 20 μM or 30 μM (GI-1 to GIII-36) with an 8-point concentration response curve using a 3-fold dilution in both the test compound without or with the co-corrector. Three replicate plates were run to determine one EC50. All plates contained negative controls (dimethyl sulfoxide, DMSO) and positive control (2 μM or 3 μM (GI-1 to GIII-36) of 3-[(2R,4R)-4-({[1-(2,2-difluoro-1,3-benzodioxol-5-yl)cyclopropyl]carbonyl}amino)-7-methoxy-3,4-dihydro-2H-chromen-2-yl]benzoic acid) as well as on-plate concentration response of the positive control. Post incubation, the plates were washed 5× times with Dulbecco's phosphate buffered saline (DPBS), followed by the addition of the HRP substrate, luminol (50 4), and measuring the HRP activity using luminescence readout on EnVision® Multilabel Plate Reader (Perkin Elmer; product number 2104-0010). The raw counts from the experiment were analyzed using Accelrys® Assay Explorer v3.3.
Z′ greater than 0.5 was used as passing quality control criteria for the plates.
The Z′ is defined as: 1−[3*SDPositve Control+3*SDNegative Control/Absolute(MeanPositive Control−MeanNegative Control)] wherein “SD” is standard deviation.
The % activity measured at each of the 8 test concentrations of the test compound added either without or with a co-corrector (2 μM or 3 μM (GI-1 to GIII-36) of 3-[(2R,4R)-4-({[1-(2,2-difluoro-1,3-benzodioxol-5-yl)cyclopropyl]carbonyl}amino)-7-methoxy-3,4-dihydro-2H-chromen-2-yl]benzoic acid) was normalized to the on-plate positive control using the following formulae: % activity (Test compound without co-corrector)=[(test compound without co-corrector response DMSO response)/(positive control response DMSO response)]*100 % activity (Test compound with co-corrector)=[(test compound with co-corrector response DMSO response)/(positive control response DMSO response)]*100
The maximum % activity achieved for the test compound either without or with a co-corrector at any tested concentration is presented in Table 6 along with the respective EC50's calculated using the following general sigmoidal curve with variable Hill slope equation (described as Model 42 in the Accelrys® Assay Explorer v3.3 software): y=(a−d)/(1+(x/c)b)+d
General sigmoidal curve with concentration, response, top, bottom, EC50 and Hill slope. This model describes a sigmoidal curve with an adjustable baseline, a. The equation can be used to fit curves where response is either increasing or decreasing with respect to the independent variable, “x”.
“x” is a concentration of drug under test.
“a” is the maximum response, and “d” is the minimum response
“c” is the inflection point (EGO for the curve. That is, “y” is halfway between the lower and upper asymptotes when x=c.
“b” is the slope-factor or Hill coefficient. […]

[1] = test compound alone, without co-corrector, read-out: EC50 (without co-corrector)
[2] = with co-corrector, read-out: EC50 (with co-corrector)

T1 sequence (P13569 with tags, fused parts or gaps DEL508-508): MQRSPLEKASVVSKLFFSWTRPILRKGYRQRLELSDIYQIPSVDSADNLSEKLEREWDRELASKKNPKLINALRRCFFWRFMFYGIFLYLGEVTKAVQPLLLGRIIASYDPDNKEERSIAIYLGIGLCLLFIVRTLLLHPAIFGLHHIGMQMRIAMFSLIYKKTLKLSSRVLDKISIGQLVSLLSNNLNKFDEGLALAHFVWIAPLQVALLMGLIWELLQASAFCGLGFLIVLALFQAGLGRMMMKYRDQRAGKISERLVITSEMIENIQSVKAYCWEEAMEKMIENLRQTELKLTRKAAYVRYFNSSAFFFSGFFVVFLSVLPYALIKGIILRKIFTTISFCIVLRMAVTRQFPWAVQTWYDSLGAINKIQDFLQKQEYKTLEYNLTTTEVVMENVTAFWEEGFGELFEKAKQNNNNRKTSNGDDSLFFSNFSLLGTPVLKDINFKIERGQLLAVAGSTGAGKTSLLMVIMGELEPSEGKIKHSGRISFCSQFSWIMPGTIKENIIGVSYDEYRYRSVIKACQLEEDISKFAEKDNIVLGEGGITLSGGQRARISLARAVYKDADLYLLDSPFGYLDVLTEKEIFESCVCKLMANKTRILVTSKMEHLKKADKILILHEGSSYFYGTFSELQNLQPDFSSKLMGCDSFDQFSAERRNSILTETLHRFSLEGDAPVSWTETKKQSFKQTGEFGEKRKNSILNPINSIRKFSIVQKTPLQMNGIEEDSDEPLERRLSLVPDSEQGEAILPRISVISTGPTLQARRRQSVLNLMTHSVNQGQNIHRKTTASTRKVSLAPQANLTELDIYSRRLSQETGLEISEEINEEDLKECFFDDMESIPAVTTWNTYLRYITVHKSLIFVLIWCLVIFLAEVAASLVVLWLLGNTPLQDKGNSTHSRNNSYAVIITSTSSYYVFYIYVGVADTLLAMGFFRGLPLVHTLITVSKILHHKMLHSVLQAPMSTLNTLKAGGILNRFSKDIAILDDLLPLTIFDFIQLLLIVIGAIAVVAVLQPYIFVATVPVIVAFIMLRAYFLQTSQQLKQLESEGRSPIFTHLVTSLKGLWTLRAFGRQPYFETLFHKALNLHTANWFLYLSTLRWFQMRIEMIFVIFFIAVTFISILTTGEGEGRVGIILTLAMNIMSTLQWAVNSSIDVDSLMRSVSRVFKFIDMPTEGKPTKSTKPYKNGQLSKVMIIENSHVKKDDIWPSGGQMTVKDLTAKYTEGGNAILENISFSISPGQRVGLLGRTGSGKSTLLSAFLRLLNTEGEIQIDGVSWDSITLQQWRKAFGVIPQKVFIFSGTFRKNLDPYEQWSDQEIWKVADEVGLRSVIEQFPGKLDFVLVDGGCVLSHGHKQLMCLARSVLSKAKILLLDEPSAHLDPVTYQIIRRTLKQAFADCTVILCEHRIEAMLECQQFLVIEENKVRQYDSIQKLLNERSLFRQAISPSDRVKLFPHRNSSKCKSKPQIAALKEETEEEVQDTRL

| Compound | Maximum % activity (with co-corrector) (test compound with co-corrector) | EC50 (test compound with co-corrector, read-out: EC50 (with co-corrector)) [µM] | Maximum % activity (without co-corrector) (test compound without co-corrector) | EC50 (test compound without co-corrector, read-out: EC50 (without co-corrector)) [µM] | EC50 [1] [µM] | Maximum % activity (with co-corrector) (with co-corrector) | EC50 [2] [µM] | Emax (without co-corrector) [%] | Maximum % activity (without co-corrector) (without co-corrector) |
| --- | --- | --- | --- | --- | --- | --- | --- | --- | --- |
| 1-[5-(cyclopropylmethoxy)-2-methoxypyridin-4-yl]-N-(2-methylquinoline-5-sulfonyl)cyclopropane-1-carboxamide [Example GI-93] | +++ (≥350) | < 3 | +++ (≥150) | < 3 | – | – | – | – | – |
| CC(C)Oc1ncc(Br)cc1C1(C(=O)NS(=O)(=O)c2cccc3ncccc23)CC1 [Example GI-1, 1-{5-bromo-2-[(propan-2-yl)oxy]pyridin-3-yl}-N-(quinoline-5-sulfonyl)cyclopropane-1-carboxamide] | – | – | – | – | < 3 | +++ (≥350) | < 3 | > 150 | – |
| CC(C)Oc1ncc(Br)cc1C1(C(=O)NS(=O)(=O)c2cccc3c2CCCN3)CC1 [Example GI-2, 1-{5-bromo-2-[(propan-2-yl)oxy]pyridin-3-yl}-N-(1,2,3,4-tetrahydroquinoline-5-sulfonyl)cyclopropane-1-carboxamide] | – | – | – | – | < 3 | +++ (≥350) | < 3 | > 150 | – |
| COc1ncc(Cl)cc1C1(C(=O)NS(=O)(=O)c2cccc3ccccc23)CC1 [Example GI-3, 1-(5-chloro-2-methoxypyridin-3-yl)-N-(naphthalene-1-sulfonyl)cyclopropane-1-carboxamide] | – | – | – | – | < 3 | +++ (≥350) | < 3 | – | +++ (≥150) |
| CCCc1nc(C(F)(F)F)ccc1C1(C(=O)NS(=O)(=O)c2cccc3ncccc23)CC1 [Example GI-4, 1-[2-propyl-6-(trifluoromethyl)pyridin-3-yl]-N-(quinoline-5-sulfonyl)cyclopropane-1-carboxamide] | – | – | – | – | 3 to 10 | +++ (≥350) | < 3 | > 150 | – |
| O=C(NS(=O)(=O)c1cccc2ncccc12)C1(c2ccc(C(F)(F)F)nc2C2CC2)CC1 [Example GI-5, 1-[2-cyclopropyl-6-(trifluoromethyl)pyridin-3-yl]-N-(quinoline-5-sulfonyl)cyclopropane-1-carboxamide] | – | – | – | – | 3 to 10 | +++ (≥350) | < 3 | > 150 | – |
| O=C(NS(=O)(=O)c1cccc2c1CCCN2)C1(c2ccc(C(F)(F)F)nc2C2CC2)CC1 [Example GI-6, 1-[2-cyclopropyl-6-(trifluoromethyl)pyridin-3-yl]-N-(1,2,3,4-tetrahydroquinoline-5-sulfonyl)cyclopropane-1-carboxamide] | – | – | – | – | 3 to 10 | +++ (≥350) | < 3 | > 150 | – |
| CC(C)c1nc(C(F)(F)F)ccc1C1(C(=O)NS(=O)(=O)c2cccc3ncccc23)CC1 [Example GI-7, 1-[2-(propan-2-yl)-6-(trifluoromethyl)pyridin-3-yl]-N-(quinoline-5-sulfonyl)cyclopropane-1-carboxamide] | – | – | – | – | 3 to 10 | +++ (≥350) | < 3 | > 150 | – |
| CCCc1nc(C(F)(F)F)ccc1C1(C(=O)NS(=O)(=O)c2cccc3c2CCCN3)CC1 [Example GI-8, 1-[2-propyl-6-(trifluoromethyl)pyridin-3-yl]-N-(1,2,3,4-tetrahydroquinoline-5-sulfonyl)cyclopropane-1-carboxamide] | – | – | – | – | < 3 | +++ (≥350) | < 3 | > 150 | – |
| CC(C)c1nc(C(F)(F)F)ccc1C1(C(=O)NS(=O)(=O)c2cccc3c2CCCN3)CC1 [Example GI-9, 1-[2-(propan-2-yl)-6-(trifluoromethyl)pyridin-3-yl]-N-(1,2,3,4-tetrahydroquinoline-5-sulfonyl)cyclopropane-1-carboxamide] | – | – | – | – | < 3 | +++ (≥350) | < 3 | > 150 | – |
| O=C(NS(=O)(=O)c1cccc2c1CCCN2)C1(c2ccc(C(F)(F)F)nc2C2CCC2)CC1 [Example GI-10, 1-[2-cyclobutyl-6-(trifluoromethyl)pyridin-3-yl]-N-(1,2,3,4-tetrahydroquinoline-5-sulfonyl)cyclopropane-1-carboxamide] | – | – | – | – | < 3 | +++ (≥350) | < 3 | > 150 | – |
| O=C(NS(=O)(=O)c1cccc2ccccc12)C1(c2ccc(C(F)(F)F)nc2C2CCC2)CC1 [Example GI-11, 1-[2-cyclobutyl-6-(trifluoromethyl)pyridin-3-yl]-N-(naphthalene-1-sulfonyl)cyclopropane-1-carboxamide] | – | – | – | – | < 3 | +++ (≥350) | < 3 | > 150 | – |
| CC(C)COc1cnc(C2CC2)c(C2(C(=O)NS(=O)(=O)c3cccc4ncccc34)CC2)c1 [Example GI-12, 1-[2-cyclopropyl-5-(2-methylpropoxy)pyridin-3-yl]-N-(quinoline-5-sulfonyl)cyclopropane-1-carboxamide] | – | – | – | – | < 3 | +++ (≥350) | < 3 | > 150 | – |
| CCc1cnc(OC(C)C)c(C2(C(=O)NS(=O)(=O)c3cccc4ncccc34)CC2)c1 [Example GI-13, 1-{5-ethyl-2-[(propan-2-yl)oxy]pyridin-3-yl}-N-(quinoline-5-sulfonyl)cyclopropane-1-carboxamide] | – | – | – | – | < 3 | +++ (≥350) | < 3 | > 150 | – |
| CCc1cnc(OC(C)C)c(C2(C(=O)NS(=O)(=O)c3cccc4c3CCCN4)CC2)c1 [Example GI-14, 1-{5-ethyl-2-[(propan-2-yl)oxy]pyridin-3-yl}-N-(1,2,3,4-tetrahydroquinoline-5-sulfonyl)cyclopropane-1-carboxamide] | – | – | – | – | 3 to 10 | +++ (≥350) | < 3 | > 150 | – |
| O=C(NS(=O)(=O)c1cccc2ncccc12)C1(c2ccc(C(F)(F)F)nc2N2CCCC2)CC1 [Example GI-15, 1-[2-(pyrrolidin-1-yl)-6-(trifluoromethyl)pyridin-3-yl]-N-(quinoline-5-sulfonyl)cyclopropane-1-carboxamide] | – | – | – | – | < 3 | +++ (≥350) | < 3 | > 150 | – |
| COc1cc(C2(C(=O)NS(=O)(=O)c3cccc4ncccc34)CC2)c(OC(C)C)cn1 [Example GI-16, 1-{2-methoxy-5-[(propan-2-yl)oxy]pyridin-4-yl}-N-(quinoline-5-sulfonyl)cyclopropane-1-carboxamide] | – | – | – | – | 3 to 10 | +++ (≥350) | < 3 | > 150 | – |
| COc1cc(OC(C)C)c(C2(C(=O)NS(=O)(=O)c3cccc4ncccc34)CC2)cn1 [Example GI-17, 1-{6-methoxy-4-[(propan-2-yl)oxy]pyridin-3-yl}-N-(quinoline-5-sulfonyl)cyclopropane-1-carboxamide] | – | – | – | – | 3 to 10 | +++ (≥350) | < 3 | > 150 | – |
